Tests used:
Assay type in all cases: in vivo
kochia (Kochia scoparia) = assay: Test C greenhouse herbicide test, postemergence; details: Postemergence
In short: (§1)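 Ratings are visual scores from 0 (no effect) to 100 (complete control), made against controls 13–15 d after treatment. Postemergence sprays were applied in the greenhouse to plants 2–18 cm tall (1- to 4-leaf stage) in peat-moss/vermiculite potting medium.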

[1] = test system: oat, wild (wild oat, Avena fatua); assay: Test C greenhouse herbicide test, postemergence; details: Postemergence
In short: as §1

[2] = test system: foxtail, giant (giant foxtail, Setaria faberii); assay: Test C greenhouse herbicide test, pre- and postemergence; details: Postemergence
In short: (§2)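 Two application timings: at sowing into a soil/sand blend, and on 2–18 cm seedlings in peat-vermiculite potting mix. A non-phytotoxic, surfactant-containing solvent carried the compounds. Plants were compared with controls and rated visually on 0–100 after 13–15 d.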

[3] = test system: ryegrass, Italian (Italian ryegrass, Lolium multiflorum); assay: as above; details: Postemergence
In short: as §2

[4] = test system: blackgrass (Alopecurus myosuroides); assay: as above; details: for Plant response rating, Blackgrass: Postemergence
In short: as §2

[5] = test system: johnsongrass (Sorghum halepense); assay: as above; details: Postemergence
In short: as §2

[6] = test system: waterhemp (common waterhemp, Amaranthus rudis); assay: as above; details: Postemergence
In short: as §2

[7] = test system: crabgrass, large (large crabgrass, Digitaria sanguinalis); assay: as above; details: for Plant response rating, Crabgrass, Large: Postemergence
In short: as §2

[8] = test system: lambsquarters (Chenopodium album); assay: as above; details: Postemergence
In short: as §2

corn (Zea mays) = assay: as above; details: for Plant response rating, Corn: Postemergence
In short: as §2

[9] = test system: ragweed (common ragweed, Ambrosia elatior); assay: as above; details: Postemergence
In short: as §2

[10] = test system: wheat (winter wheat, Triticum aestivum); assay: as above; details: Postemergence
In short: as §2

soybean (Glycine max) = assay: as above; details: Postemergence
In short: as §2

[11] = test system: pigweed (Amaranthus retroflexus); assay: as above; details: Postemergence
In short: as §2

[12] = test system: morningglory (Ipomoea coccinea); assay: as above; details: Postemergence
In short: as §2

[13] = test system: barnyardgrass (Echinochloa crus-galli); assay: as above; details: for Plant response rating, Barnyardgrass: Postemergence
In short: as §2

[14] = 31 g ai/ha, scale 0 to 100 (0 no effect, 100 complete control)
[15] = 125 g ai/ha, scale 0 to 100, 0 is no effect, 100 is complete control
[16] = 250 g ai/ha, scale 0 to 100, 0 no effect, 100 complete control, 13 to 15 d
[17] = postemergence, 62 g ai/ha, scale 0 to 100, 0 no effect, 100 complete control

## Cc1nn(C)c(=O)c(-c2cc(F)cc3ccccc23)c1OS(C)(=O)=O [Compound 115]
Kochia (Kochia scoparia); [14]
  Plant response rating, Kochia: 70
Kochia (Kochia scoparia); [15]
  Plant response rating, Kochia: 90
Kochia (Kochia scoparia); [16]
  Plant response rating, Kochia: 90
[1]; [14]
  Plant response rating, Oat, Wild: 55
[1]; [15]
  Plant response rating, Oat, Wild: 80
[1]; [16]
  Plant response rating, Oat, Wild: 90
[2]; [14]
  Plant response rating, Foxtail, Giant: 5
[2]; [15]
  Plant response rating, Foxtail, Giant: 20
[2]; [16]
  Plant response rating, Foxtail, Giant: 35
[3]; [14]
  Plant response rating, Ryegrass, Italian: 90
[3]; [15]
  Plant response rating, Ryegrass, Italian: 95
[3]; [16]
  Plant response rating, Ryegrass, Italian: 95
[4]; [14]
  Plant response rating, Blackgrass: 0
[4]; [15]
  Plant response rating, Blackgrass: 20
[4]; [16]
  Plant response rating, Blackgrass: 35
[4]; [17]
  Blackgrass plant response rating: 10
[5]; [14]
  Plant response rating, Johnsongrass: 5
[5]; [15]
  Plant response rating, Johnsongrass: 10
[5]; [16]
  Plant response rating, Johnsongrass: 20
[6]; [14]
  Plant response rating, Waterhemp: 65
[6]; [15]
  Plant response rating, Waterhemp: 90
[6]; [16]
  Plant response rating, Waterhemp: 90
[7]; [14]
  Plant response rating, Crabgrass, Large: 10
[7]; [15]
  Plant response rating, Crabgrass, Large: 20
[7]; [16]
  Plant response rating, Crabgrass, Large: 25
[7]; [17]
  Crabgrass, Large plant response rating: 20
[8]; [14]
  Plant response rating, Lambsquarters: 70
[8]; [15]
  Plant response rating, Lambsquarters: 90
[8]; [16]
  Plant response rating, Lambsquarters: 98
Corn (Zea mays); [14]
  Plant response rating, Corn: 5
Corn (Zea mays); [15]
  Plant response rating, Corn: 5
Corn (Zea mays); [16]
  Plant response rating, Corn: 15
Corn (Zea mays); [17]
  Corn plant response rating: 5
[9]; [14]
  Plant response rating, Ragweed: 60
[9]; [15]
  Plant response rating, Ragweed: 95
[9]; [16]
  Plant response rating, Ragweed: 98
[10]; [14]
  Plant response rating, Wheat: 0
[10]; [15]
  Plant response rating, Wheat: 0
[10]; [16]
  Plant response rating, Wheat: 5
Soybean (Glycine max); [14]
  Plant response rating, Soybean: 10
Soybean (Glycine max); [15]
  Plant response rating, Soybean: 20
Soybean (Glycine max); [16]
  Plant response rating, Soybean: 65
[11]; [14]
  Plant response rating, Pigweed: 30
[11]; [15]
  Plant response rating, Pigweed: 70
[11]; [16]
  Plant response rating, Pigweed: 90
[12]; [14]
  Plant response rating, Morningglory: 55
[12]; [15]
  Plant response rating, Morningglory: 95
[12]; [16]
  Plant response rating, Morningglory: 100
[13]; [14]
  Plant response rating, Barnyardgrass: 10
[13]; [15]
  Plant response rating, Barnyardgrass: 35
[13]; [16]
  Plant response rating, Barnyardgrass: 45
[13]; [17]
  Barnyardgrass plant response rating: 20

— US10597388B2, “Pyridazinone herbicides” (FMC CORPORATION, priority 2014, dated 2020)
